For the experiment, the target named is Botulinum neurotoxin type A (Clostridium botulinum, UniProt P0DPI0).
Botulinum neurotoxin type A, sequence (P0DPI0 2-448 limits assumed): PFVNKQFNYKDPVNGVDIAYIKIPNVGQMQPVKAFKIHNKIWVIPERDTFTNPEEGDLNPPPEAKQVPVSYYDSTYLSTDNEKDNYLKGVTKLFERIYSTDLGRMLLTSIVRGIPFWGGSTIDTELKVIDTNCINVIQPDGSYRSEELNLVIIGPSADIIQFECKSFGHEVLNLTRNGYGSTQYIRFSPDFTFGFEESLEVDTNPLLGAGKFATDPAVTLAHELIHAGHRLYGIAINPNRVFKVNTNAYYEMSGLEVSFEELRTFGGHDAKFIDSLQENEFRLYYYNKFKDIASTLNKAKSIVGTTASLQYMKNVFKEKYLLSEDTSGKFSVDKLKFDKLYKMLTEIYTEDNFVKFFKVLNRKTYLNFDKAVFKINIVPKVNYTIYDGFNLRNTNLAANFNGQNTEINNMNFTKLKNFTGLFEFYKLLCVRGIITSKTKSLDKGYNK

`COC(=O)c1ccc(O)c2nc3c(C=O)c(O)cc(O)c3nc12` [LOMOFUNGIN] yielded a Ki of 25 µM.

By Ki is commonly meant a dissociation constant, usually derived from enzyme kinetics or from competition with a known ligand.
